These results are taken from patent publication US20250041387A1, “POLYPEPTIDE SEQUENCE OF KDM6B AND APPLICATION OF KDM6B IN REGULATING AND CONTROLLING FUNCTION OF MESENCHYMAL STEM CELL” (BEIJING STOMATOLOGICAL HOSPITAL, CAPITAL MEDICAL UNIVERSITY, priority 2021, published 2025).

Where “and” joins values, the source holds several entries; their conditions need not be identical. Equal entries are not always repeated.

Test [1] has as its system minipig periodontitis model with bone defect. The test is described as follows: Minipig periodontitis model, clinical indicators (PD, AL, GR) and intraoral observation. It is filed as in vivo, Wuzhishan minipigs. Also on record: attachment loss (AL) / gingival recession (GR): unit not given here. The conditions noted are these: for attachment loss (AL) / gingival recession (GR) / probing depth (PD): individual sides. The source says: Method: An experimental minipig periodontitis model was established by creating bone defect and ligating silk threads. Specifically, minipigs were conventionally anaesthetized, and extraorally disinfected. The mandibular first permanent molar of the minipig was selected as the experimental tooth, which was subjected to intra-sulcal incision and vertical incision. The mucoperiosteal flap was opened, the mesia-buccal root of the mandibular first permanent molar of the minipig was exposed by bone removal, and a bone defect with a size of 3 mm×5 mm×7 mm was created. That is, 3 mm×5 mm×7 mm of the mesial proximal alveolar bone was removed, and the mesiobuccal root buccal bone plate and distal alveolar bone (3 mm×5 mm, the gingival depth was level with the mesial proximal surface) were removed. The suture in situ was performed. The experimental tooth neck was ligated with silk threads. […] The successful establishment of periodontal bone defect model was verified by CT imaging and clinical examination.
12 Wuzhishan minipigs were used to establish periodontitis model, with a total of 24 sides, which were randomly divided into 3 groups. Each side was injected with a drug at an amount of 60 μl. Group 1: flap surgery with scraping+injection of sterile saline after modeling (untreated control group); group 2: flap surgery with scraping+injection of control polypeptide after modeling (control group); group 3: flap surgery with scraping+injection of bioactive polypeptide 114 after modeling (experimental group).
Drug injection treatment was performed 4 weeks after the modeling operation. The effect of bioactive polypeptide 114 on the regeneration and repair capacity of defected tissues mediated by stem cells in minipigs of periodontitis was assessed by comparing the clinical indicators and imaging examination after modeling (−4 w), 4 weeks after modeling without drug injection (0 w) and 3 months after drug treatment (12 w).
Clinical indicators (PD, AL and GR) detection and CT imaging were performed before the experiment, after modeling (−4 w) and 3 months after treatment (12 w).
Periodontal probing depth (PD): The depth of the periodontal pocket on the mesiobuccal side of the tooth was recorded at a probing pressure of 20-25 g.
Gingival recession (GR): The distance from the cemento-enamel junction to the gingival margin was measured using a periodontal probe. If there was gingival recession, the cementoenamel junction was exposed, and the gingival margin was located at the root of the cementoenamel junction, then the distance between the two was recorded as a positive value; if there was no gingival recession, the gingival margin was located at the crown of the cementoenamel junction, then the distance between the two was recorded as a negative value.
Attachment loss (AL): The degree of attachment loss was determined by subtracting GR from the periodontal pocket depth. If the two numbers were subtracted to zero, or the cementoenamel junction cannot be detected, it means there was no attachment loss. If the gingival recession caused the gingival margin to locate at the root of the cementoenamel junction, the two numbers were added to obtain the degree of the attachment loss. • 2.1 Probing depth (PD) was shown in Table 17 and FIG. 10.

For test [2] the test system is unchanged. The test is described as follows: Minipig periodontitis model, new bone volume by CBCT three-dimensional reconstruction. It is filed as in vivo, Wuzhishan minipigs. The settings on record: week 12 after injection, 60 μl per side; individual sides; FIG. 9; listed as 114 peptide. The text has this:
Method: An experimental minipig periodontitis model was established by creating bone defect and ligating silk threads. Specifically, minipigs were conventionally anaesthetized, and extraorally disinfected. The mandibular first permanent molar of the minipig was selected as the experimental tooth, which was subjected to intra-sulcal incision and vertical incision. The mucoperiosteal flap was opened, the mesia-buccal root of the mandibular first permanent molar of the minipig was exposed by bone removal, and a bone defect with a size of 3 mm×5 mm×7 mm was created. That is, 3 mm×5 mm×7 mm of the mesial proximal alveolar bone was removed, and the mesiobuccal root buccal bone plate and distal alveolar bone (3 mm×5 mm, the gingival depth was level with the mesial proximal surface) were removed. The suture in situ was performed. The experimental tooth neck was ligated with silk threads. […]
Drug injection treatment was performed 4 weeks after the modeling operation. The effect of bioactive polypeptide 114 on the regeneration and repair capacity of defected tissues mediated by stem cells in minipigs of periodontitis was assessed by comparing the clinical indicators and imaging examination after modeling (−4 w), 4 weeks after modeling without drug injection (0 w) and 3 months after drug treatment (12 w). […]

The test system of test [3] is OVX mouse of osteoporosis model. Description: OVX mouse osteoporosis model, micro-CT of distal femur. Type of test: in vivo, C57BL/6 mice. The conditions noted are these: OVX mice, 10 mg/kg intraperitoneally for 3 months from 6 weeks after ovary removal, individual mice, FIG. 19B, listed as 114 peptide. The text has this: Twenty five 3-month-old C57BL/6 mice were purchased from Vital River and randomly divided into sham operation group, OVX group, PBS group, control peptide group and 114 peptide group, with five mice in each group. The osteoporosis model was established by removing bilateral ovaries in OVX, PBS, control peptide and 114 peptide groups. In the sham operation group, ovaries were not removed. 6 weeks after ovary removal, the mice were intraperitoneally injected with control peptide and peptide 114 at 10 mg/kg for continuous 3 months, and then sacrificed. For the distal femur, the left distal femur of each mouse was scanned ex vivo using a micro-CT system. Each segment of bone trabeculae was selected for segmentation, and subjected to 3D reconstruction. BMD was calculated.

Test [4] relates to defected palatal mucosa of mice. Description: Palatal mucosa defect in mice. It is filed as in vivo, Balb/c mice. The settings on record: for area of unhealed defected palatal mucosa: individual mice, FIG. 16.
The mark [5] stands for this setting: 0 w, 4 weeks after modeling without drug injection, listed as 114 peptide.
Where [6] appears, read: 12 w after injection, listed as 114 peptide.

As to “FITC-(Acp)-ADLTISHCAADVVRAYGRKKRRQRRR [peptide 114]”, the “attachment loss (AL)” value is 9.5 (3×) and 9 and 12 (2×) in test [1] (setting [5]); “significantly lower and 3 and 2.5 and 1.5 and 4” in test [1] (setting [6]). Moreover, the “gingival recession (GR)” value in test [1] (setting [5]) was 2.5 (3×) and 1 (2×) and 0.5 and 3 and 4.5; in test [1] (setting [6]), “significantly lower and 0.5 and 1”; in test [1] (−4 w, before drug injection, FIG. 12), 0. Besides, the “probing depth (PD)” value was 7.5 (3×) and 8.5 and 7 and 8 and 9 (2×) in test [1] (setting [5]); “significantly lower and 2.5 and 2 and 0.5 and 1 and 3” in test [1] (setting [6]); 1 (7×) and 2 in test [1] (−4 w, before drug injection, FIG. 10, listed as 114 peptide). Also, in test [1] (CT imaging, bone volume analysis and clinical examination), the “mesenchymal stem cells-mediated regeneration of periodontal tissue” value was “promoted”. Also, the “restoration effect of soft tissues (intraoral images)” value in test [1] (week 12 after injection, FIG. 14) is “better”. In addition, the “new bone formation volume” value in test [2] is “better and higher and 101.99 mm^3 and 80.68 mm^3 and 79.08 mm^3 and 80.48 mm^3 and 76.48 mm^3 and 85.49 mm^3”. Further, the “bone density (BMD) of femoral bone trabeculae” value in test [3] was “significant up-regulation and 0.1440 and 0.1242 and 0.1416 and 0.1071 and 0.1137”. In test [4] (compared to PBS group and control peptide group, FIG. 15), the “healing of defected palatal mucosa (observation)” value is “obviously healed”. In addition, the “area of unhealed defected palatal mucosa” value is 5.782 and 7.254 and 8.231 and 5.52 and 6.401 in test [4] (day 14); 2.259 and 0.3319 and 1.964 and 2.33 and 2.213 in test [4] (day 21).
